By Ki is commonly meant a dissociation constant, usually derived from enzyme kinetics or from competition with a known ligand. Low readings indicate a stronger hold on the target, high ones a looser hold on the target.

Sequence of HGFR (c-Met) (P08581 974-1390): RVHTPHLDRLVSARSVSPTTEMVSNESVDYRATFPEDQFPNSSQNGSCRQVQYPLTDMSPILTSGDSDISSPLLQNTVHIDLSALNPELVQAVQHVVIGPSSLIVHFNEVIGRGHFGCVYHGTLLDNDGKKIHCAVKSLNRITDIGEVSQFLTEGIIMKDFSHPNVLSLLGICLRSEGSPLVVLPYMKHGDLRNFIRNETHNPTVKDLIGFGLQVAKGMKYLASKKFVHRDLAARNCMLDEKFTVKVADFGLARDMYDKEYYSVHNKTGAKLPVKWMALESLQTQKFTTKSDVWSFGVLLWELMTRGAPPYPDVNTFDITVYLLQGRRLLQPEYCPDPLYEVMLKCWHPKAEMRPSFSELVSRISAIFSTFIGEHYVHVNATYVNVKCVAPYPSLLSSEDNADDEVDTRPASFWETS

This assay has as its target HGFR (c-Met) (Homo sapiens, UniProt P08581). Kind of assay: HGFR Continuous-Coupled Spectrophotometric Assay. Conditions: HGFR enzyme 50 nM, Met-2 peptide substrate, 37° C. The format is biochemical. In short, it runs like this:
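Human HGFR (50 nM final) phosphorylates the Met-2 activation-loop peptide, with ADP formation coupled through PK/LDH to NADH consumption, read as the A340 decrease over 10 min at 37 °C. Buffer was HEPES pH 7.5 with MgCl2, DTT, PEP and ATP.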
Compound `CC(=O)c1ccc(-c2cnc(N)c(OC(C)c3c(Cl)ccc(F)c3Cl)c2)cc1` (centres unmarked) [Example 147, 1-(4-{6-amino-5-[1-(2,6-dichloro-3-fluorophenyl)ethoxy]pyridin-3-yl}phenyl) ethanone] came in with a Ki of 0.073 µM.
`CC(Oc1cc(-c2ccc3c(ccn3C)c2)cnc1N)c1c(Cl)ccc(F)c1Cl` (centres unmarked) [Example 148, 3-[1-(2,6-dichloro-3-fluorophenyl)ethoxy]-5-(1-methyl-1H-indol-5-yl)pyridin-2-amine] gave a Ki of 0.153 µM.
The same measure for `COc1ccc(-c2cnc(N)c(OC(C)c3c(Cl)ccc(F)c3Cl)c2)cc1CC#N` (centres unmarked) [Example 149, (5-{6-amino-5-[1-(2,6-dichloro-3-fluorophenyl)ethoxy]pyridin-3-yl}-2-methoxyphenyl) acetonitrile]: 0.37 µM; for `CC(O)c1cccc(-c2cnc(N)c(OC(C)c3c(Cl)ccc(F)c3Cl)c2)c1` (centres unmarked) [Example 150, 1-(3-{6-amino-5-[1-(2,6-dichloro-3-fluorophenyl)ethoxy]pyridin-3-yl}phenyl)ethanol]: 0.2 µM.
Compound `CC(Oc1cc(-c2ccc(C3(C#N)CCNCC3)cc2)cnc1N)c1c(Cl)ccc(F)c1Cl` (centres unmarked) [Example 152, 4-(4-{6-amino-5-[1-(2,6-dichloro-3-fluorophenyl)ethoxy]pyridin-3-yl}phenyl) piperidine-4-carbonitrile] returned a Ki of 0.012 µM.
The same measure for `CC(Oc1cc(-c2cccc(C3(C#N)CCNCC3)c2)cnc1N)c1c(Cl)ccc(F)c1Cl` (centres unmarked) [Example 153, 4-(3-{6-amino-5-[1-(2,6-dichloro-3-fluorophenyl)ethoxy]pyridin-3-yl}phenyl) piperidine-4-carbonitrile]: 0.006 µM; for `CC(=O)N1CCC(C#N)(c2cccc(-c3cnc(N)c(OC(C)c4c(Cl)ccc(F)c4Cl)c3)c2)CC1` (centres unmarked) [Example 154, 1-acetyl-4-(3-{6-amino-5-[1-(2,6-dichloro-3-fluorophenyl)ethoxy]pyridin-3-yl}phenyl) piperidine-4-carbonitrile]: 0.022 µM; for `CC(Oc1cc(-c2ccc3nc(C(=O)N(C)C)cn3c2)cnc1N)c1c(Cl)ccc(F)c1Cl` (centres unmarked) [Example 155, 6-{6-amino-5-[1-(2,6-dichloro-3-fluorophenyl)ethoxy]pyridin-3-yl}-N,N-dimethylimidazo[1,2-a]pyridine-2-carboxamide]: 0.04 µM.

For the origin of these results see US20060178374A1, “Aminoheteroaryl compounds as protein kinase inhibitors” (AGOURON PHARMACEUTICALS, INC., priority 2004, published 2006).
